Data on two compounds can be found in publication PMC12648101, “Targeting SARS-CoV-2 main protease for the discovery of a broad-spectrum COVID-19 inhibitor by intensive multi-tiered validation” (Acta Pharmaceutica Sinica. B, 2025).

Where two headings read alike, the source gives them in different places.

In the assay the test system is SARS-CoV-2 strains and variants (wild-type, Delta, Omicron BA.1.1, BA.2.3, BA.4, BA.5). The assay is described as follows: Antiviral CPE assay in Vero E6 cells, summary over all tested strains. The format is cell-based. To be noted: Severe acute respiratory syndrome coronavirus 2, Vero C1008.

Regarding `O=C(O)C[C@@H]1C(=O)O[C@H]2[C@@H]3OC(=O)c4cc(O)c(O)c(O)c4-c4c(cc(O)c(O)c4O)C(=O)OC[C@H]2O[C@@H](OC(=O)c2cc(O)c(O)c(O)c2)[C@@H]3OC(=O)c2cc(O)c(O)c3c2[C@H]1[C@H](O)C(=O)O3` [CHLA, chebulagic acid], for the setting “read-out: EC50 values against a range of SARS-CoV-2 variants”, the EC50 was below 2000 nM.
For `CC(C)(C)[C@H](NC(=O)C(F)(F)F)C(=O)N1C[C@H]2[C@@H]([C@H]1C(=O)N[C@H](C#N)C[C@@H]1CCNC1=O)C2(C)C` [PF-07321332, reference compound], the concentration giving a half-maximal response (EC50) (read-out: EC50 for the tested SARS-CoV-2 strains and variants) is around 50 nM.
